Results from patent US11993588B2, “Crystalline forms of a MAGL inhibitor” (H. Lundbeck A/S, priority 2016, dated 2024).
≈ marks a conversion by molar mass, not a printed value. Structures can show the parent of a compound that is named as a salt. Where two headings read alike, the source gives them in different places.

Tests used:
Assay type in all cases: physicochemical
[1] = Gravimetric vapor sorption (GVS); details: for hygroscopic nature / weight uptake: GVS; for Post-GVS analysis by XRPD (form change): after GVS sorption/desorption cycle
Experimental: Approximately 10 mg of sample was placed into a mesh vapour sorption balance pan and loaded into an IGASorp Moisture Sorption Analyser balance by Hiden Analytical. The sample was subjected to a ramping profile from 40-90% relative humidity (RH) at 10% increments, maintaining the sample at each step until a stable weight had been achieved (98% step completion). After completion of the sorption cycle, the sample was dried using the same procedure to 0% RH, and finally taken back to the starting point of 40% RH. The weight change during the sorption/desorption cycles were plotted, allowing for the hygroscopic nature of the sample to be determined.

7-day stability testing = assay: 7-day stability testing
Experimental: Form 2 of Compound 2 was scaled up in two solvents. Material underwent 7-day stability testing and/or aqueous solubility assessment. The 7-day stability testing was conducted as follows. Material was exposed to environments of 40° C./75% RH, ambient light and 80° C. for 7 days and the resulting solids analysed by XRPD to determine if any changes had occurred, and by HPLC to determine purity. The aqueous solubility assessment was conducted as follows. A slurry was created in deionised water (5.1 mg of Form 2 and 300 μL of water) and shaken for ca. 24 hours at ambient temperature (ca. 22° C.). The initial pH and final pH were measured. The resulting mixture was then isolated by centrifuge filtration, and the solution obtained analysed by HPLC to calculate the concentration of material dissolved. Remaining solid was analysed by XRPD to determine if any changes had occurred on slurrying.

[2] = Compound 6 polymorph screen; details: among the three Compound 6 polymorphs
Description: In a Compound 6 polymorph screen, two additional Compound 6 crystalline forms were identified. Compound 6, Form 2, was isolated from a 95/5 acetone/water slurry and Compound 6, Form 3, was isolated from in a 80/20 dioxane/water mixture.

[3] = Solvent solubility screen for Compound 1; details: thermodynamic from solid, crystalline Compound 1 (Form 1), read-out: Approximate Solubility
Experimental: Ca. 10 mg of crystalline Compound 1 was placed in 32 vials and 5 volume aliquots of the appropriate solvent systems were added to the appropriate vial. Between each addition, the mixture was checked for dissolution and if no dissolution was apparent, the mixture was heated to ca. 40° C. and checked again. This procedure was continued until dissolution was observed or until 100 volumes of solvent had been added. After the addition of 100 volumes, a further 100 volumes were added to samples which had not dissolved to give a total of 200 volumes. If 200 volumes were added without dissolution, the solubility was calculated to be below this point (<5 mg/mL).

[4] = ambient light / ambient conditions for 7 days

With `Cl.Cl.O=C(OC(C(F)(F)F)C(F)(F)F)N1CCN(Cc2ccc(C(F)(F)F)cc2N2CCCC2)CC1` [Compound 3, 1,1,1,3,3,3-hexafluoropropan-2-yl 4-(2-(pyrrolidin-1-yl)-4-(trifluoromethyl)benzyl)piperazine-1-carboxylate bis-HCl salt] the hygroscopic nature [1] was “slightly hygroscopic”, the weight uptake ([1]; at 90% RH) was 1.4% and the “Post-GVS analysis by XRPD (form change)” value [1] was “remain unchanged”.
In the case of `CS(=O)(=O)O.O=C(OC(C(F)(F)F)C(F)(F)F)N1CCN(Cc2ccc(C(F)(F)F)cc2N2CCCC2)CC1` [Compound 5, 1,1,1,3,3,3-hexafluoropropan-2-yl 4-(2-(pyrrolidin-1-yl)-4-(trifluoromethyl)benzyl)piperazine-1-carboxylate mesylate salt], the hygroscopic nature [1] is reported as “moderately hygroscopic”, the weight uptake ([1]; at 90% RH) is reported as 3.5% and the weight uptake ([1]; up to 70% humidity) is reported as 2.8%. The “Post-GVS analysis by XRPD (form change)” value [1] was “maintained its form and crystallinity”, the “HPLC purity after stability testing” value (7-day stability testing; 40° C./75% RH for 7 days) was 99.98% and the “HPLC purity after stability testing” value (7-day stability testing; 80° C. for 7 days) was 99.97%. The “HPLC purity after stability testing” value (7-day stability testing; [4]) was 99.95%.
In the case of `O=C(OC(C(F)(F)F)C(F)(F)F)N1CCN(Cc2ccc(C(F)(F)F)cc2N2CCCC2)CC1` [Compound 6, 1,1,1,3,3,3-hexafluoropropan-2-yl 4-(2-(pyrrolidin-1-yl)-4-(trifluoromethyl)benzyl)piperazine-1-carboxylate fumarate salt], the “HPLC purity after stability testing” value (7-day stability testing; 40° C./75% RH for 7 days) is reported as 99.9%, the “HPLC purity after stability testing” value (7-day stability testing; 80° C. for 7 days) is reported as 99.9% and the “HPLC purity after stability testing” value (7-day stability testing; [4]) is reported as 99.9%. The “relative thermodynamic stability of polymorphs” value [2] was “thermodynamically most stable form”.
For `O=C(OC(C(F)(F)F)C(F)(F)F)N1CCN(Cc2ccc(C(F)(F)F)cc2N2CCCC2)CC1` [Compound 1, 1,1,1,3,3,3-hexafluoropropan-2-yl 4-(2-(pyrrolidin-1-yl)-4-(trifluoromethyl)benzyl)piperazine-1-carboxylate], the solubility ([3]; aqueous with cosolvent or surfactant or cyclodextrin, 2-Propanol:water (50%)) was less than 5 mg/mL, the solubility ([3]; aqueous with cosolvent or surfactant or cyclodextrin, Acetone:water (50%), precipitated after ca. 30 minutes) was greater than 202 mg/mL and the solubility ([3]; aqueous with cosolvent or surfactant or cyclodextrin, Methanol:water (50%)) was less than 5 mg/mL. It also gave a solubility ([3]; organic solvent or mixture, 1,4-Dioxane) greater than 206 mg/mL, a solubility ([3]; organic solvent or mixture, 1-Butanol) of 39 mg/mL (≈ 76.9 mM) and a solubility ([3]; organic solvent or mixture, 2-Ethoxyethanol) of 103 mg/mL (≈ 203 mM). It also gave a solubility ([3]; organic solvent or mixture, 2-Methyl tetrahydrofuran) greater than 200 mg/mL, a solubility ([3]; organic solvent or mixture, 2-Propanol, precipitated after ca. 2 days) of 69 mg/mL (≈ 136 mM) and a solubility ([3]; organic solvent or mixture, Acetone) greater than 202 mg/mL. For the same compound, the solubility ([3]; organic solvent or mixture, Acetonitrile) was greater than 196 mg/mL, the solubility ([3]; organic solvent or mixture, Anisole) was greater than 200 mg/mL and the solubility ([3]; organic solvent or mixture, Benzonitrile) was greater than 214 mg/mL. For the same compound, the solubility ([3]; organic solvent or mixture, Chlorobenzene) was 69 mg/mL (≈ 136 mM), the solubility ([3]; organic solvent or mixture, Dichloromethane) was greater than 198 mg/mL and the solubility ([3]; organic solvent or mixture, Diisopropyl Ether) was greater than 208 mg/mL. The solubility ([3]; organic solvent or mixture, Dimethylacetamide) was greater than 204 mg/mL, the solubility ([3]; organic solvent or mixture, Dimethylformamide) was greater than 204 mg/mL and the solubility ([3]; organic solvent or mixture, Dimethylsulfoxide) was 50 mg/mL (≈ 98.5 mM). It also gave a solubility ([3]; organic solvent or mixture, Ethanol) of 67 mg/mL (≈ 132 mM), a solubility ([3]; organic solvent or mixture, Ethyl acetate) greater than 198 mg/mL and a solubility ([3]; organic solvent or mixture, Heptane) of 49 mg/mL (≈ 96.6 mM). It also gave a solubility ([3]; organic solvent or mixture, Hexane) of 49 mg/mL (≈ 96.6 mM), a solubility ([3]; organic solvent or mixture, Isopropyl acetate) greater than 198 mg/mL and a solubility ([3]; organic solvent or mixture, Methanol) of 72 mg/mL (≈ 142 mM). For the same compound, the solubility ([3]; organic solvent or mixture, Methyl isobutyl ketone) was greater than 196 mg/mL, the solubility ([3]; organic solvent or mixture, Methylethyl ketone) was greater than 202 mg/mL and the solubility ([3]; organic solvent or mixture, N-Methyl-2-pyrrolidone) was greater than 198 mg/mL. The solubility ([3]; organic solvent or mixture, Tetrahydrofuran) was greater than 198 mg/mL, the solubility ([3]; organic solvent or mixture, Toluene) was greater than 202 mg/mL and the solubility ([3]; organic solvent or mixture, tert-Amyl alcohol) was 69 mg/mL (≈ 136 mM). The solubility ([3]; organic solvent or mixture, tert-Butylmethyl ether) was greater than 196 mg/mL and the solubility ([3]; Water) was less than 5 mg/mL.
